The subject of data set [1] is ERAP1. Description: 40 ng ERAP1. The following applies: human, 37°C, up to 1 hr.
Data set [2] deals with ERAP1. The data set can be described thus: 40 ng of ERAP1 in 20 mM Tris pH 8 buffer containing 100 mM NaCl. The following applies: human, 37°C, up to 1 hr.
Data set [3] concerns ERAP1. The data set can be described thus: 7.8 nM of ERAP1. The conditions noted are these: human, 37°C, up to 1 hr.
Data set [4] has as its system ERAP1. Description: ERAP1, trimming rate measurements (pmol/µg ERAP1×sec). The following applies: human.
Data set [5] deals with ERAP1. Description: purified recombinant ERAP1 (alanine scan). The conditions noted are these: human.
The subject of data set [6] is ERAP1. Description: 800 nM ERAP1. The following applies: human, 37°C, up to 1 hr.
A further data set has as its target T1, human recombinant ERAP1 (Homo sapiens, UniProt Q9NZ08).
T1 construct: we over-expressed human recombinant full-length ERAP1 in insect cell suspension culture; hexa-His (C); myc; made in house; host or cells: Hi5 insect cells (baculovirus; virus made in SF9 cells)
The data set can be described thus: N-terminus trimming of model peptides by ERAP1, products analysed by reverse-phase HPLC. Type of data set: biochemical. The following applies: alanine scan, 40 ng of ERAP1, three separate experiments in parallel; RP-HPLC; Figure 3A. How it is done:
Human recombinant ERAP1 was produced in Hi5 insect cells grown in Excel405™ serum free medium, after infection by baculovirus carrying the ERAP1 gene with a C-terminal hexa-His tag. The enzyme was secreted into the cell medium, which was harvested by centrifugation (3000 rpm, 30 min, 4°C, GSA rotor) in a Sorvall centrifuge. The cell supernatant was subjected to 3 rounds of buffer exchange (10 fold dilution each time) using a large scale diafiltration apparatus versus 5 mM phosphate buffer at pH 7 containing 100 mM NaCl. The supernatant was then concentrated and its composition adjusted to 50 mM phosphate (pH 8), 300 mM NaCl, 10 mM imidazole and immediately loaded onto a HiTrap™ chelating column (Qiagen) that was pre-loaded with Ni(II)SO4. The column was washed with the same buffer containing 20 mM imidazole and the protein was eluted using a 20 mM to 150 mM imidazole gradient. […]
The digestion of model peptides by ERAP1 was followed by analysis of peptide products of the digestion on a reverse phase C18 column (Higgins Analytical 0546-C183). […] The elution was done with a 5% to 40% acetonitrile gradient at 1 ml/min, while following the absorbance at 214 nm or 280 nm. […]
Figure 1 Typical chromatogram of peptide product analysis after ERAP1 digestion. Samples were analyzed by HPLC reverse phase chromatography. […]

The test system of data set [7] is ERAP1 (recombinant, Hi5 insect cells). The data set can be described thus: purified recombinant ERAP1 in 20 mM Tris pH 8, 100 mM NaCl. The following applies: human, 37°C, up to 1 hr.
The test system of data set [8] is ERAP1. Description: 15.6 nM of ERAP1. The following applies: human, 37°C, up to 1 hr.
For data set [9], the system named is ERAP1. Description: 1 nM ERAP1. The following applies: human, 37°C, up to 1 hr.

No end group written: not given here.

T1 sequence (Q9NZ08 1-948 isoform Q9NZ08-2): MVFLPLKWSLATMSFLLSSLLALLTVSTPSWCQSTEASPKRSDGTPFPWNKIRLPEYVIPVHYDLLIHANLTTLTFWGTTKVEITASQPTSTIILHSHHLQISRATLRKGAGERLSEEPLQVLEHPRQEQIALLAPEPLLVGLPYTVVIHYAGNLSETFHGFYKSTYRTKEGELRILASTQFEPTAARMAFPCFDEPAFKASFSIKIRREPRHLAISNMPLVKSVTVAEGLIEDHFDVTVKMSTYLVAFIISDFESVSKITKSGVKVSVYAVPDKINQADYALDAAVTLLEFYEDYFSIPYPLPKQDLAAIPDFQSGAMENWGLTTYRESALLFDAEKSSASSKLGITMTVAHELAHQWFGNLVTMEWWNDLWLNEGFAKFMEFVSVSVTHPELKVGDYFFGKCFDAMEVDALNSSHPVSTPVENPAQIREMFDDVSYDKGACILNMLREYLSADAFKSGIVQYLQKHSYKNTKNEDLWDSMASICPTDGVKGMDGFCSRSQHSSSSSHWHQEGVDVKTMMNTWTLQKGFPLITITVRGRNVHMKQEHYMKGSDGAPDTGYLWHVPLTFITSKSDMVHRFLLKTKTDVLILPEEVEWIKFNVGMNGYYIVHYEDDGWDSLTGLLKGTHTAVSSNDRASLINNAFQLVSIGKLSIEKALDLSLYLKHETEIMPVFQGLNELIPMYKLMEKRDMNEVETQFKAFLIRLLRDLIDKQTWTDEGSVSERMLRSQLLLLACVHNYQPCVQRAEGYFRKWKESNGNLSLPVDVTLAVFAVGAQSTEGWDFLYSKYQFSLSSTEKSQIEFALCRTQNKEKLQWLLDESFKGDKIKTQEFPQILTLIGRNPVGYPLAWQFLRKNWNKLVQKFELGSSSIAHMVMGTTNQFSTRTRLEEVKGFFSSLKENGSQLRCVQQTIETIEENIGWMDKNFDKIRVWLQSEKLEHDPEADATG

On to LAAALSIINFEKL, for which the not cleaved result in the data set with ERAP1 [1] and with ERAP1 [2] was “resistant to any trimming after 1 hr” in each case.
As for AYWANATRSG, the cleaved bond result in the data set with ERAP1 [2] is given as “A-Y”.
As to LSIINFEAL, the cleaved bond entry in the data set with ERAP1 [3] is given as “L-S, 1 hr”.
For LYWANATASG, the cleaved bond entry in the data set with ERAP1 [4] is reported as “L-Y”. Besides, the not cleaved result in the data set with ERAP1 [5] is “Less than 1% trimming”.
Consider LYWANAARSG, for which, in the data set on ERAP1 [2], the cleaved bond entry is “L-Y”.
As for LYWANATRAG, in the data set with ERAP1 [2], the cleaved bond entry is reported as “L-Y”.
Regarding LTAEEAVET, the not cleaved entry in the data set with ERAP1 [6] is on record as “completely resistant to trimming after 1 hr with 800 nM ERAP1”. Also, the cleaved bond entry in the data set on ERAP1 [4] was “L-T”.
Turning to LAWANATRSG, in the data set on ERAP1 [2], the cleaved bond entry is listed as “L-A”.
MYWANATRSG: in the data set with ERAP1 [2], the cleaved bond entry is “M-Y”.
With LYWANATASG [LYWANATASG], the “percent N-terminus trimming detected” value on human recombinant ERAP1 is given as “Less than 1%”.
For LSIINFEKL, the cleaved bond entry with ERAP1 [3] is “L-S”; in the data set on ERAP1 [2], “L-S, 1 hr”.
With LYWANATRSA, the cleaved bond result in the data set with ERAP1 [2] is reported as “L-Y”.
Take FYWANATRSG: the cleaved bond entry in [7] is given as “F-Y, 1 hr”; in the data set on ERAP1 [2], “F-Y, 1 hr”.
As to LVNVDYSKL, the cleaved bond result in the data set on ERAP1 [8] is listed as “L-V, 1 hr”.
For LSIINFEKLAAAL, the cleaved bond entry in the data set with ERAP1 [2] is recorded as “L-S, 1 hr”.
Same read-out and setting: next, LYWAAATRSG: “L-Y”.
On the same count and under the same terms, next, LYAANATRSG: “L-Y”.
Regarding LVAFKARKF, the cleaved bond result in the data set with ERAP1 [9] was “L-V, 1 hr”.
In the case of LYWANATRSG, the cleaved bond result in the data set with ERAP1 [5] and in the data set on ERAP1 [2] was “L-Y” each time.
With LVNVDYSAL, the cleaved bond result in the data set on ERAP1 [8] is listed as “L-V, 1 hr”.
